From US7985765B2, “Therapeutic substituted pyrroles” (Allergan, Inc., priority 2008, dated 2011)

Experiments:
EP2 [1] = target: T1, EP2 (Homo sapiens, UniProt P43116); assay: EP2 cAMP assay; format: cell-based
Excerpt: (§1) US 2007/0129552, incorporated by reference herein, describes the methods used to obtain the in vitro data in the table below.

EP2 [2] = target: T1, EP2; assay: EP2 flipr functional assay; format: cell-based
Excerpt: as §1

EP2 [3] = target: T1, EP2; assay: EP2 binding (Ki)
Excerpt: as §1

EP4 = EP4 (Homo sapiens, UniProt P35408); assay: EP4 binding (Ki)
Sequence of EP4 (P35408 whole entry): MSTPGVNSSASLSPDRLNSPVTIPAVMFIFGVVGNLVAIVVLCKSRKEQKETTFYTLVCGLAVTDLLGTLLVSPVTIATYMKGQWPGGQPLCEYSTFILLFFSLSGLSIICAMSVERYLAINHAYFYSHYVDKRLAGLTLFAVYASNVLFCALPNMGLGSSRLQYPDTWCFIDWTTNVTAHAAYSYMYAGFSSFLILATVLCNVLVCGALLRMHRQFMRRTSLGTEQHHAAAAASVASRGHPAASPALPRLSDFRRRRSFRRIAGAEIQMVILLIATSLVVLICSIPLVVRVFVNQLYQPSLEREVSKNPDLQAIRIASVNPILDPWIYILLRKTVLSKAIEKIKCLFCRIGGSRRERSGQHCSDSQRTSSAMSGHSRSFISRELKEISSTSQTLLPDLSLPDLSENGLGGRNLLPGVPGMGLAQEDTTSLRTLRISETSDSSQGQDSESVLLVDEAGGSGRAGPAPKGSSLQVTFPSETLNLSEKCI
Excerpt: as §1

hDP = target: T2, hDP (Homo sapiens, UniProt Q13258); assay: Other receptors functional assay, hDP; format: cell-based
T2 sequence (Q13258 1-359): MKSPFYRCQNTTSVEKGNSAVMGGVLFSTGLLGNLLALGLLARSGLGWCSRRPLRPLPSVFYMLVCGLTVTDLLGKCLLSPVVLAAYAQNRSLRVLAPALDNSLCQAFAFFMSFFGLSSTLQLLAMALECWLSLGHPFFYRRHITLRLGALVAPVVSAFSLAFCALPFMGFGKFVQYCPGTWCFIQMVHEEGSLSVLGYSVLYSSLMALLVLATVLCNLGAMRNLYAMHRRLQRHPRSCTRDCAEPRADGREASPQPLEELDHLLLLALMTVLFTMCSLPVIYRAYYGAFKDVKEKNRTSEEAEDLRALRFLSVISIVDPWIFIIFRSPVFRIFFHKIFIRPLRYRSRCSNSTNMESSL
Excerpt: as §1

T1 sequence (P43116 whole entry): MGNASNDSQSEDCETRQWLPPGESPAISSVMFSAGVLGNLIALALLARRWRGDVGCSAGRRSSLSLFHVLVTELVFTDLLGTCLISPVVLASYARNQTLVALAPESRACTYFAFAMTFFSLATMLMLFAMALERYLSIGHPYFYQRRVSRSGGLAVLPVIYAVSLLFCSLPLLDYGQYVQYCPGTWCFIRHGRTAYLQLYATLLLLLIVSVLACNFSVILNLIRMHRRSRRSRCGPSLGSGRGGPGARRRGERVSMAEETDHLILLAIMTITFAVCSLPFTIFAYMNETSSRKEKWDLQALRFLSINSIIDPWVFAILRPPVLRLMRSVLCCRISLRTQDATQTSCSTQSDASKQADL

EC50 (EP2 [1]): 0.7 nM
EC50 (EP2 [2]): 2820 nM
Ki (EP2 [3]): 46 nM
Ki (EP4): 3980 nM
EC50 (hDP): 2190 nM
Compound: CCCCCCc1ccc(-n2cccc2CCCc2ccc(C(=O)O)s2)cc1 [Example 1, 5-(3-(1-(4-hexylphenyl)-1H-pyrrol-2-yl)propyl)thiophene-2-carboxylic acid]
